Tested on: FermPro S
Experiment: Susceptibility of fermenting yeast to sodium percarbonate in diluted molasses (Example 1, second part)
Format: cell-based
Conditions: for yeast level after treatment: two hours, molasses
Method: In a second part of this Example 1, the yeasts strains Ethanol Red, FermPro S, and SuperStart (commonly used as fermenting yeasts in the ethanol industry) were cultured overnight in Yeast Peptone Dextrose broth (YPD, Difco Laboratories Inc., Sparks, Md.). Individual strains were then suspended in dilute molasses as above to give approximately 1×10^6 CFU/ml and treated with various concentration of percarbonate for two hours as described above.

**Q.** For O=C([O-])[O-].O=C([O-])[O-].OO.OO.OO.[Na+].[Na+].[Na+].[Na+] [Sodium percarbonate, sodium percarbonate], which reduction of yeast (1.0×10^6 CFU/ml, 500 ppm percarbonate) is on record?
**A.** < 1 log

**Q.** And the “yeast level after treatment” value (100 ppm percarbonate)?
**A.** 7.30 × 10^6 CFU/ml

**Q.** What about the “yeast level after treatment” value (250 ppm percarbonate) of the same molecule?
**A.** 3.00 × 10^6 CFU/ml

**Q.** And the “yeast level after treatment” value (500 ppm percarbonate)?
**A.** 1.43 × 10^6 CFU/ml

**Q.** What about the reduction of yeast (1000 ppm percarbonate) of the same molecule?
**A.** approximately 1 log

**Q.** What about the “yeast level after treatment” value (1000 ppm percarbonate) of the same molecule?
**A.** 2.90 × 10^5 CFU/ml
